{
  "source": "patent US9387263B2",
  "about": "“RbAp48 transgenic mice for drug discovery in age-related memory decline” (THE TRUSTEES OF COLUMBIA UNIVERSITY IN THE CITY OF NEW YORK, priority 2011, dated 2016)",
  "system": "RbAp48 mRNA expression in hippocampus",
  "assay": "RbAp48 transcript in situ hybridization in adult hippocampus after injection of kainic acid (synaptic stimulation)",
  "format": "in vivo, mouse",
  "conditions": "wild type mice",
  "description": "FIG. 14: RbAp48 transcript distribution in the adult hippocampus of wild type mice in either control conditions (injection of saline) of after injection of kainic acid (synaptic stimulation). Coronal cryosections were hybridized with radio-labelled oligonucleotides specific for RbAp48. […] This upregulation of RbAp48 lasted for four hours (8 hr to 12 hr time points).\nRNA In Situ Hybridizations: RNA in situ hybridizations were performed on fresh frozen adult brain slices using 40-45 base anti-sense oligonucleotides^37. The oligonucleotides used for the detection of RbAp48-DN-Flag and RbAp48 transcripts can be found in supplemental table 3.\nTreatment with Kainic Acid Kainic acid (Sigma) was injected intraperitoneally as previously described^42\nBecause RbAp48 regulates histone acetylation, it was explored whether RbAp48-DN affects the steady state levels of histone acetylation in the hippocampal formation using immunohistochemistry and image quantification analysis to measure histone acetylation. The initial focus was on the DG. […] To test for spatial specificity, the CA1 subregion was examined and no significant reduction in histone acetylation (FIGS. 12c & 12d) was found. As with behavior and fMRI, the effect of RbAp48-DN on H2B and H4 acetylation in the adult DG was reversed when its expression was turned off (mice on dox; FIGS. 12c & 12d).",
  "data": [
    {"smiles": "C=C(C)[C@H]1CN[C@H](C(=O)O)[C@H]1CC(=O)O", "note": "[kainic acid]", "values": [
      {"measurement": "Duration of upregulation of RbAp48", "setting": "dentate gyrus, 8 hr to 12 hr time points after kainic acid", "value": "four"},
      {"measurement": "Expression of RbAp48 (transcript distribution in adult hippocampus)", "setting": "intraperitoneal kainic acid vs saline, eight hours after application, radio-labelled oligonucleotide in situ hybridization", "value": "upregulated specifically in the dentate gyrus"}
    ]}
  ]
}
